Reference: ChEMBL document CHEMBL1201862, “PubChem BioAssay data set” (2004)
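48-hour exposure; five concentrations; linearly interpolated endpoints. Here, GI50 denotes the concentration required for 50% inhibition of growth.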 Calls of active or inactive are those of the source. Cut-off read from the data, not from the text of the source: active = GI50 up to about 1.1 µM and inactive = higher.

Assays:
Test in all cases: NCI-60 cell line screen, 48 h
[1] = tested on: 786-0
[2] = tested on: A498
[3] = tested on: A549
[4] = tested on: ACHN
[5] = tested on: BT-549
[6] = tested on: CAKI-1
[7] = tested on: CCRF-CEM
[8] = tested on: COLO 205
[9] = tested on: DU-145
[10] = tested on: EKVX
[11] = tested on: HCC 2998
[12] = tested on: HCT-116
[13] = tested on: HCT-15
[14] = tested on: HL-60
[15] = tested on: HOP-62
[16] = tested on: HOP-92
[17] = tested on: HT-29
[18] = tested on: IGROV-1
[19] = tested on: K562
[20] = tested on: KM12
[21] = tested on: LOX IMVI
[22] = tested on: M14
[23] = tested on: MCF7
[24] = tested on: MDA-MB-231
[25] = tested on: MDA-MB-435
[26] = tested on: MDA-N
[27] = tested on: MOLT-4
[28] = tested on: Malme-3M
[29] = tested on: NCI-H226
[30] = tested on: NCI-H23
[31] = tested on: NCI-H460
[32] = tested on: NCI-H522
[33] = tested on: NCI/ADR-RES
[34] = tested on: OVCAR-3
[35] = tested on: OVCAR-4
[36] = tested on: OVCAR-5
[37] = tested on: OVCAR-8
[38] = tested on: PC-3
[39] = tested on: RPMI-8226
[40] = tested on: RXF 393
[41] = tested on: SF-268
[42] = tested on: SF-295
[43] = tested on: SF-539
[44] = tested on: SK-MEL-28
[45] = tested on: SK-MEL-2
[46] = tested on: SK-MEL-5
[47] = tested on: SK-OV-3
[48] = tested on: SN12C
[49] = tested on: SNB-19
[50] = tested on: SNB-75
[51] = tested on: SR
[52] = tested on: SW-620
[53] = tested on: T47D
[54] = tested on: TK-10
[55] = tested on: U-251
[56] = tested on: UACC-257
[57] = tested on: UACC-62
[58] = tested on: UO-31
[59] = tested on: Hs-578T

C=Cc1ccccc1C1C(C(=O)OCC)=C(C)N=C2OC(C(=O)OC)C(=O)N21 (stereo unspecified)
GI50 [1]: > 100 µM (inactive) | GI50 [2]: > 100 µM (inactive) | GI50 [3]: > 100 µM (inactive) | GI50 [4]: > 100 µM (inactive) | GI50 [5]: > 100 µM (inactive) | GI50 [6]: > 100 µM (inactive) | GI50 [7]: > 100 µM (inactive) | GI50 [8]: > 100 µM (inactive) | GI50 [9]: > 100 µM (inactive) | GI50 [10]: > 100 µM (inactive) | GI50 [11]: > 100 µM (inactive) | GI50 [12]: > 100 µM (inactive) | GI50 [13]: > 100 µM | GI50 [14]: 87.5 µM (inactive) | GI50 [15]: > 100 µM (inactive) | GI50 [16]: > 100 µM (inactive) | GI50 [17]: > 100 µM (inactive) | GI50 [18]: > 100 µM (inactive) | GI50 [19]: > 100 µM (inactive) | GI50 [20]: > 100 µM (inactive) | GI50 [21]: > 100 µM (inactive) | GI50 [22]: > 100 µM (inactive) | GI50 [23]: > 100 µM (inactive) | GI50 [24]: > 100 µM (inactive) | GI50 [25]: > 100 µM (inactive) | GI50 [26]: > 100 µM (inactive) | GI50 [27]: > 100 µM (inactive) | GI50 [28]: > 100 µM (inactive) | GI50 [29]: > 100 µM (inactive) | GI50 [30]: > 100 µM (inactive) | GI50 [31]: > 100 µM (inactive) | GI50 [32]: > 100 µM (inactive) | GI50 [33]: > 100 µM (inactive) | GI50 [34]: > 100 µM (inactive) | GI50 [35]: > 100 µM (inactive) | GI50 [36]: > 100 µM (inactive) | GI50 [37]: > 100 µM (inactive) | GI50 [38]: > 100 µM (inactive) | GI50 [39]: > 100 µM (inactive) | GI50 [40]: > 100 µM (inactive) | GI50 [41]: > 100 µM (inactive) | GI50 [42]: > 100 µM (inactive) | GI50 [43]: > 100 µM (inactive) | GI50 [44]: > 100 µM (inactive) | GI50 [45]: > 100 µM (inactive) | GI50 [46]: > 100 µM (inactive) | GI50 [47]: > 100 µM (inactive) | GI50 [48]: > 100 µM (inactive) | GI50 [49]: > 100 µM (inactive) | GI50 [50]: > 100 µM (inactive) | GI50 [51]: > 100 µM (inactive) | GI50 [52]: > 100 µM (inactive) | GI50 [53]: > 100 µM (inactive) | GI50 [54]: > 100 µM (inactive) | GI50 [55]: > 100 µM (inactive) | GI50 [56]: > 100 µM (inactive) | GI50 [57]: > 100 µM (inactive) | GI50 [58]: > 100 µM (inactive)

O=Cc1cn(CCCCCn2cc(C=O)c3ccccc32)c2ccccc12
GI50 [1]: 71.4 µM (inactive) | GI50 [2]: 5.71 µM (inactive) | GI50 [3]: > 100 µM (inactive) | GI50 [4]: > 100 µM (inactive) | GI50 [5]: > 100 µM (inactive) | GI50 [6]: > 100 µM (inactive) | GI50 [7]: > 100 µM (inactive) | GI50 [8]: > 100 µM (inactive) | GI50 [9]: > 100 µM (inactive) | GI50 [10]: > 100 µM (inactive) | GI50 [12]: > 100 µM (inactive) | GI50 [13]: > 100 µM | GI50 [14]: > 100 µM (inactive) | GI50 [16]: > 100 µM (inactive) | GI50 [17]: > 100 µM (inactive) | GI50 [59]: 25 µM (inactive) | GI50 [18]: > 100 µM (inactive) | GI50 [19]: > 10 µM (inactive) | GI50 [21]: 41.5 µM (inactive) | GI50 [22]: > 100 µM (inactive) | GI50 [24]: 54.6 µM (inactive) | GI50 [25]: > 100 µM (inactive) | GI50 [26]: > 100 µM (inactive) | GI50 [27]: > 100 µM (inactive) | GI50 [28]: > 100 µM (inactive) | GI50 [29]: 0.262 µM (active) | GI50 [30]: > 100 µM (inactive) | GI50 [31]: 0.124 µM (active) | GI50 [32]: 8.18 µM (inactive) | GI50 [33]: > 100 µM (inactive) | GI50 [34]: > 100 µM (inactive) | GI50 [36]: 1.68 µM (inactive) | GI50 [37]: > 100 µM (inactive) | GI50 [38]: > 100 µM (inactive) | GI50 [39]: > 100 µM (inactive) | GI50 [40]: 6.55 µM (inactive) | GI50 [41]: 16.7 µM (inactive) | GI50 [42]: 10.4 µM (inactive) | GI50 [43]: > 100 µM (inactive) | GI50 [45]: > 100 µM (inactive) | GI50 [46]: > 100 µM (inactive) | GI50 [47]: > 100 µM (inactive) | GI50 [48]: > 100 µM (inactive) | GI50 [49]: > 100 µM (inactive) | GI50 [51]: > 100 µM (inactive) | GI50 [52]: > 100 µM (inactive) | GI50 [54]: > 100 µM (inactive) | GI50 [55]: 67.9 µM (inactive) | GI50 [56]: > 100 µM (inactive) | GI50 [57]: > 100 µM (inactive) | GI50 [58]: > 100 µM (inactive)

O=c1[nH]/c(=C/c2cccs2)c(=O)[nH]/c1=C/c1ccc(OCc2ccccc2)cn1
GI50 [1]: 0.061 µM (active) | GI50 [2]: 0.0374 µM (active) | GI50 [3]: 0.144 µM (active) | GI50 [4]: 3.24 µM (inactive) | GI50 [5]: 0.0239 µM (active) | GI50 [6]: 0.0312 µM (active) | GI50 [7]: 0.0327 µM (active) | GI50 [8]: 0.323 µM (active) | GI50 [9]: 0.0716 µM (active) | GI50 [10]: 1 µM (active) | GI50 [11]: 0.0562 µM (active) | GI50 [12]: 0.0494 µM (active) | GI50 [13]: < 0.015 µM | GI50 [14]: < 0.0182 µM (active) | GI50 [15]: 0.033 µM (active) | GI50 [17]: 0.124 µM (active) | GI50 [59]: 0.0276 µM (active) | GI50 [18]: 0.219 µM (active) | GI50 [19]: < 0.0156 µM (active) | GI50 [20]: 0.59 µM (active) | GI50 [21]: 57.1 µM (inactive) | GI50 [22]: 0.0309 µM (active) | GI50 [23]: 0.0422 µM (active) | GI50 [24]: 0.219 µM (active) | GI50 [25]: < 0.01 µM (active) | GI50 [26]: 0.0164 µM (active) | GI50 [27]: 0.033 µM (active) | GI50 [28]: 0.0197 µM (active) | GI50 [29]: 0.312 µM (active) | GI50 [30]: 0.0398 µM (active) | GI50 [31]: 0.0351 µM (active) | GI50 [32]: 0.0171 µM (active) | GI50 [33]: 0.0266 µM (active) | GI50 [34]: < 0.0146 µM (active) | GI50 [35]: 0.0836 µM (active) | GI50 [36]: 3.87 µM (inactive) | GI50 [37]: 0.197 µM (active) | GI50 [38]: 0.0431 µM (active) | GI50 [39]: 0.0618 µM (active) | GI50 [40]: 0.0506 µM (active) | GI50 [41]: 0.0521 µM (active) | GI50 [42]: 0.0206 µM (active) | GI50 [43]: 0.123 µM (active) | GI50 [44]: 3.3 µM (inactive) | GI50 [45]: 0.0561 µM (active) | GI50 [46]: 0.0515 µM (active) | GI50 [47]: 0.0426 µM (active) | GI50 [48]: 0.064 µM (active) | GI50 [49]: 0.0661 µM (active) | GI50 [50]: 0.027 µM (active) | GI50 [51]: < 0.0142 µM (active) | GI50 [52]: 0.0361 µM (active) | GI50 [54]: 1.74 µM (inactive) | GI50 [55]: 0.0631 µM (active) | GI50 [56]: 0.116 µM (active) | GI50 [57]: 0.0638 µM (active) | GI50 [58]: 0.0207 µM (active)
